The source of these data is patent US20250367212A1, “PHARMACOTHERAPY FOR OBSESSIVE-COMPULSIVE DISORDER TARGETING DOPAMINE D1 SIGNAL IN STRIATAL STRIOSOMES” (priority 2022, published 2025).

For data set [1], the system named is rodent model using fear conditioning. Particulars: cited from earlier work.
The test system of data set [2] is patients with blepharospasm. Particulars: for neurological or neuropsychiatric changes during the drug challenge test: in vivo.
Setting [3] is: n=7 per group, 8 weeks, single drug.

SMILES strings stand for the structures. Read-outs that look alike come from different tables or passages of the source.

In the case of `Br.Cc1cccc(C2CN(C)CCc3c2cc(O)c(O)c3Cl)c1` (stereo not drawn) [SKF83959], in data set [1] (administration of D1 receptor agonist, Chen et al., Brain Research 2020), the fear memory result is recorded as “long-term loss of fear memory”.

For the molecule `CN(C)CCCN1c2ccccc2Sc2ccc(Cl)cc21` [CPZ, chlorpromazine], the “neurological or neuropsychiatric changes during the drug challenge test” value in data set [2] was “No apparent neurological or neuropsychiatric changes”. In data set [2] (setting [3]), the “change in severity of blepharospasm, BSDI, before vs after drug challenge test” value is recorded as “No significant changes in severity”; the “change in severity of blepharospasm, JRS, before vs after drug challenge test” value was “No significant changes in severity”; the “change in severity of blepharospasm, VAS, before vs after drug challenge test” value is listed as “No significant changes in severity”; the “change in severity of blepharospasm, mVAS, before vs after drug challenge test” value is recorded as “No significant changes in severity”.

Turning to `N[C@@H](Cc1ccc(O)c(O)c1)C(=O)O` [L-DOPA, L-3,4-dihydroxyphenylalanine], the “corrected VAS (mVAS), after the drug challenge test” value in data set [2] (L-DOPA group, n=7, DOPACOL 1 to 3 tablets/day over 8 weeks, before 141.3±8.7, P<0.05, severity significantly progressed) came out at 178.8±24.3. The “neurological or neuropsychiatric changes during the drug challenge test” value in data set [2] is listed as “No apparent neurological or neuropsychiatric changes”. Besides, in data set [2] (setting [3]), the “change in severity of blepharospasm, BSDI, before vs after drug challenge test” value is reported as “no severity progressed”; the “change in severity of blepharospasm, JRS, before vs after drug challenge test” value was “no severity progressed”; the “change in severity of blepharospasm, VAS, before vs after drug challenge test” value is “no severity progressed”.

As to `CCN1CCCC1CNC(=O)c1cc(S(N)(=O)=O)ccc1OC` (stereo not drawn) [sulpiride], in data set [1] (single injection of D2 receptor antagonist, Ponnusamy et al., Learning & Memory 2005), the fear memory result is listed as “effective in erasing fear memory”.
